Measured values as given in US20230322735A1, “AZETIDINYL TRYPTAMINES AND METHODS OF TREATING PSYCHIATRIC DISORDERS” (priority 2020, published 2023).
pEC50: −log10 of the molar value.

Key:
5-HT2B receptor = biological target: T1, 5-HT2B receptor (Homo sapiens, UniProt P41595); assay: FLIPR Ca2+ flux agonist assay at 5-HT2B (HEK293); format: cell-based
T1 construct: host or cells: HEK293
Procedure: (§1) A solution of 250 mM probenecid in 1 mL FLIPR assay buffer was prepared fresh. This was combined with a fluorescent dye (Fluo-4 Direct™) to make a final assay concentration of 2.5 mM. […] The fluorescent dye was then added to the assay plate along with assay buffer to a final volume of 40 μL. The cell plate was incubated for 50 min at 37° C. and 5% CO2 and placed into the FLIPR Tetra along with the compound plate. 10 μL of references and compounds were then transferred from the compound plate into the cell plate and the fluorescent signal was read.

human 5-HT2C receptor = biological target: T2, human 5-HT2C receptor (Homo sapiens, UniProt P28335); assay: cell-based; conditions: Ca2+ flux, agonist mode
T2 sequence (P28335 33-458): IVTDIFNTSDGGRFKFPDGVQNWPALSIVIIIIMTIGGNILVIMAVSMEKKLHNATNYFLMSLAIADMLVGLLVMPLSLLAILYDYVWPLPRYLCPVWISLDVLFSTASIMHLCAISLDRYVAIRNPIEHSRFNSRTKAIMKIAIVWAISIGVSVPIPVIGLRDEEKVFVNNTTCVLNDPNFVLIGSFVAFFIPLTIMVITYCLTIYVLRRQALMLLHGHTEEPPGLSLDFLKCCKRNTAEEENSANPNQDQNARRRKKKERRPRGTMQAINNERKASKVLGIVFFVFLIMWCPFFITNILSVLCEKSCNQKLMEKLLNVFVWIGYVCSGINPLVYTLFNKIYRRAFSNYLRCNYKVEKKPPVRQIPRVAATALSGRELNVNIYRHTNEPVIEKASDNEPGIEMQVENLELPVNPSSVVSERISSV

5-HT1A receptor = biological target: T3, 5-HT1A receptor (Homo sapiens, UniProt P08908); assay: FLIPR Ca2+ flux agonist assay at 5-HT1A (CHO cells); format: cell-based
T3 construct: host or cells: CHO cells
T3 sequence (P08908 1-422): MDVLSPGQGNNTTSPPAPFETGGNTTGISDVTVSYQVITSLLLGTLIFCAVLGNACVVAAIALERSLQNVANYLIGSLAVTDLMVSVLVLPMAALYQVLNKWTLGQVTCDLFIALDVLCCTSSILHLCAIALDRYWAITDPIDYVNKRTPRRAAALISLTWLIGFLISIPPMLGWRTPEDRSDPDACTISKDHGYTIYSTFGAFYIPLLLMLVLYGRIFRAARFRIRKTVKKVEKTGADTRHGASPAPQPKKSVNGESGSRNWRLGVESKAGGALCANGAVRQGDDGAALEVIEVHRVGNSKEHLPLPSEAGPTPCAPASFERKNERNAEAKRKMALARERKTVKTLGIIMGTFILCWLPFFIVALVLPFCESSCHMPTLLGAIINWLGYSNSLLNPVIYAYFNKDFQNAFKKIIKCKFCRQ
Procedure: as §1

[1] = Chemical stability of the product on storage and analysis; format: physicochemical
Procedure: Note: The product 2 is unstable and should be stored frozen, protected from light, and under inert gas. If stored properly, stability has been confirmed by qNMR for at least 1 month.
A mixture of 3-(2-(azetidin-1-yl)ethyl)-1H-indol-4-ol (2, 50 mg, 231.18 μmol, 1 eq) and pyridine (23.77 mg, 300.54 μmol, 24.26 μL, 1.3 eq) in DCM (1 mL) was cooled to 0° C. Then acetic anhydride (25.96 mg, 254.30 μmol, 23.82 μL, 1.1 eq) was added dropwise at 0° C. and the resulting mixture was stirred at 25° C. for 1 h. At this time, the solvent was removed and the residue was purified by prep-HPLC (column=Waters Xbridge BEH C18 (100*30 mm, 10 μm); mobile phase=water(NH4HCO3)-ACN, B %=5%-40%; 10 min run time) to provide 3-(2-(azetidin-1-yl)ethyl)-1H-indol-4-yl acetate (4) as a white solid (20 mg, 33% yield). ^1H NMR (400 MHz, DMSO-d6) δ 11.01 (br s, 1H), 7.22 (d, J=8.0 Hz, 1H), 7.11 (d, J=1.6 Hz, 1H), 7.02 (t, J=8.0 Hz, 1H), 6.64 (d, J=7.6 Hz, 1H), 3.09 (t, J=6.8 Hz, 4H), 2.57-2.54 (m, 4H), 2.32 (s, 3H), 1.96-1.90 (m, 2H); LCMS (RT=0.983 min, MS calc.: 258.14, [M+H]+=259.1).

[2] = Stability in rat brain homogenate
[3] = Stability in mouse brain homogenate
[4] = Metabolic stability in human liver microsomes (HLM)
[5] = both, human, pooled human liver microsomes, pH 7.4

T1 sequence (P41595 whole entry): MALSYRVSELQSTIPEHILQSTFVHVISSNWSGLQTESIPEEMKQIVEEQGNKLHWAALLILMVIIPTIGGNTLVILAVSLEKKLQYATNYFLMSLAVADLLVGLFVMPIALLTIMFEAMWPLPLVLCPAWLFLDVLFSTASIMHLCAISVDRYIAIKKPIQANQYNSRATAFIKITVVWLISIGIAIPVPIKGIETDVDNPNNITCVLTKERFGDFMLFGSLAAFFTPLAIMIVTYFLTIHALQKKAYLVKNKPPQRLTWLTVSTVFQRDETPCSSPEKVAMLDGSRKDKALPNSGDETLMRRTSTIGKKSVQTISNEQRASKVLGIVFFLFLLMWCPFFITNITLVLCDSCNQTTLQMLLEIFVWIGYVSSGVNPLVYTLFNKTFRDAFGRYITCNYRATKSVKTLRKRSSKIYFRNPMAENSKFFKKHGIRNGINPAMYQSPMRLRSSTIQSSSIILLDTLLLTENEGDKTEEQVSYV

Oc1cccc2[nH]cc(CCN3CCC3)c12 [Compound 2, 3-(2-(azetidin-1-yl)ethyl)-1H-indol-4-ol]
pEC50 (5-HT2B receptor): < 5.00 | 5-HT2B % Act @ Max Dose (5-HT2B receptor; Ca2+ flux, agonist mode, HEK293): 3.83% | 5-HT2C % Act @ Max Dose (human 5-HT2C receptor): 48.4% | pEC50 (human 5-HT2C receptor): 6.55 | pEC50 (5-HT1A receptor): 5.99 | 5-HT1A % Act @ Max Dose (5-HT1A receptor; Ca2+ flux, agonist mode, CHO cells): 102% | stability of the product (in words) ([1]; storage): unstable | time for which stability was confirmed by qNMR ([1]; stored frozen, protected from light, under inert gas): at least 1 month | stability in rat brain homogenate (in words) [2]: good stability | half-life at 1 μM ([2]; male, Sprague Dawley, rat, rat brain homogenate): 2.91 h | % Compound Remaining (after 120 min) ([2]; rat brain homogenate (male Sprague Dawley), 1 μM, 37° C., 120 min): 56.8% | stability in mouse brain homogenate (in words) [3]: good stability | half-life at 1 μM ([3]; male, CD-1, mouse, mouse brain homogenate): > 4.82 h | % Compound Remaining (after 120 min) ([3]; mouse brain homogenate (male CD-1), 1 μM, 37° C., 120 min): 74.2% | half-life at 1 μM [4, 5]: > 2.42 h | microsomal CLint at 1 μM [4, 5]: < 9.6 µL/min/mg | metabolic stability in HLM compared with dimethyl counterpart ([4]; vs DMT, psilocin, 5-MeO-DMT respectively): greater metabolic stability
